Laboratory results: patent US4629737A, “Secondary amines and use in pharmaceutical compositions” (Beecham Group p.l.c., priority 1982, dated 1986)
Where a name gives a salt, the structure may show the parent alone. Read-outs that look alike come from different tables or passages of the source. Each block holds one molecule with its values, some of them ahead of it.

Columns and labels:
blood glucose = experiment: Hypoglycaemic activity: reduction in area under blood glucose curve after glucose load; format: in vivo, Female CFLP mice; settings: Mus musculus
Procedure: Female CFLP mice, weighing approximately 25 g, were fasted for 24 hours prior to the study. The compounds under study were administered orally as an aqueous solution to each of 6 mice. 30 minutes later a blood sample (10 μl) was obtained from the tail for the analysis of blood glucose. Immediately after taking this blood sample, glucose (1 g/Kg body weight) was administered subcutaneously to each mouse. 6 mice were given water as a control. Blood samples were then obtained from each mouse at 30 minute intervals for 120 minutes.
Compounds that produced a significant (P<0.05) reduction of blood glucose, compared with control mice given water, at any time interval, were considered active. The area under the blood glucose curve over the 2 hour period after the administration of the glucose was calculated for each compound and compared with the value for control animals.

rat ear = experiment: Topical anti-inflammatory activity, croton oil induced rat ear inflammation; format: in vivo; settings: 1.00 mg/rat ear; 6 h; shown by significant (5% level) reduction in ear weight vs non-drug treated control
Procedure: The method used is based on that described by G. Tonelli et al (Endocrinology, 77, 625-634, 1965). An inflammation is induced in the rat ear by the application of 50 μl of a 1% solution of croton oil in tetrahydrofuran, test compounds being dissolved in the irritant vehicle. After 6 hours the inflammation is assessed by killing the animals and weighing the ears. Topical anti-inflammatory activity of a compound is generally considered to be shown when a significant (5% level) reduction in ear weight is seen compared to non-drug treated control.

[1] = tested on: platelet aggregation in human whole blood; experiment: Collagen-induced platelet aggregation in human whole blood in vitro; format: cell-based; settings: 3 mins pre-incubation
Procedure: Collagen-induced platelet aggregation in human whole blood in vitro.
Collagen added to stirred citrated blood causes platelet aggregation. As the platelets aggregate, the concentration of single platelets falls. […] Inhibitors of aggregation, such as aspirin and dipyridamole, reduce the response to collagen.
Blood drawn from volunteers who denied taking aspirin within the previous seven days was mixed with 0.1 vol 129 mM trisodium citrate, dispensed into 0.5 ml aliquots and kept at 25° C. Collagen (Hormon-Chemie, Munich) or 154 mM NaCl (control) was added to each aliquot of blood stirred at 1100 rpm in an aggregometer at 37° C. after 3 mins pre-incubation with compound or appropriate solvent. Aggregates were fixed by addition of 0.5 vol 4.5% formaldehyde or 0.05 vol phosphate-buffered glutaraldehyde. Single platelets were counted electronically. Responses, expressed as percent fall in platelet count, were obtained to a range of collagen concentrations. The concentration producing 50% maximal effect (EC50) was estimated from log10 concentration-response curves. Dose-ratios were calculated by dividing the EC50 obtained in the presence of compound under test by the control EC50.

[2] = Effect on energy expenditure of mice; format: in vivo, Female CFLP mice; settings: Mus musculus; for response vs control in vivo at 23.9 mg/kg: 23.9 mg/kg po; for response vs control in vivo at 21 mg/kg: 21.0 mg/kg po
Procedure: Female CFLP mice, each weighing approximately 24 g were given food and water ad lib before and during the experiment. The compounds were dissolved in water by addition of one mole of hydrochloric acid per mole of compound and these solutions were administered orally to each of 12 mice. A further 12 mice were dosed orally with water. The mice were placed in boxes through which air was drawn and the oxygen content of the air leaving the boxes was measured. The energy expenditure of the mice was calculated for 21 hours after dosing from the volume of air leaving the boxes and its oxygen content, following the principles described by J. B. de V. Weir, J. Physiol. (London), 109, 1-9 (1949).

left atrium = experiment: Isolated rat atria screen: tension of electrically paced left atrium; parameters: species or system Sprague-Dawley male rats; settings: for EC50: concentration producing 50% of its own maximum response; for Emax: maximal effect relative to isoprenaline maximum (=1), read-out: Tension i.a. (intrinsic activity)
Procedure: (§1) Sprague-Dawley male rats (300-400 g) are killed and the right and left atria dissected out independently and mounted on a combined tissue holder/electrode. The tissues are then immersed in a glass bath containing Krebs solution maintained at 32° C. The rate of the spontaneously beating right atrium (via an isometric transducer and a ratemeter) and the tension of the electrically paced left atrium (via an isometric transducer) are recorded on an M19 chart recorder.
(§2) After an initial stabilization period, the tissues are exposed to a maximal concentration of isoprenaline (10^-7 M). The tissues are then washed several times until rate and tension return to baseline level. A dose-response curve to the test compound is then carried out.
(§3) Responses to each concentration of test compound are expressed as a percentage of the maximal responses to isoprenaline. Results are given in the form of (a) intrinsic activity (i.a.) (maximal effect of test compound with respect to isoprenaline maximum, i.e. isoprenaline intrinsic activity=1) and (b) EC50 (the molar concentration at which the test compound produces 50% of its own maximum response).

right atrium = experiment: Isolated rat atria screen: rate of spontaneously beating right atrium; parameters: species or system Sprague-Dawley male rats; settings: for Emax: maximal effect relative to isoprenaline maximum (=1), read-out: Rate i.a. (intrinsic activity)
Procedure: as §1, §2, §3

[3] = 0-3 h, read-out: Mean Energy Expenditure (0-3 h)
[4] = 0-21 h, read-out: Mean Energy Expenditure (0-21 h)
[5] = final concentration in whole blood 200 μM
[6] = po, 2 h, read-out: % Reduction in area under Blood Glucose Curve
[7] = po, 3 h, read-out: Mean Energy Expenditure (0-3 h)
[8] = po, 21 h, read-out: Mean Energy Expenditure (0-21 h)
[9] = 2.5 μmol/Kg oral, 2 h after glucose 1 g/Kg s.c., vs control, read-out: % Reduction in area under Blood Glucose Curve
[10] = 25.1 mg/kg po, 0-3 h, read-out: Mean Energy Expenditure (0-3 h)

Structure (SMILES): CCCOC(CNC(C)Cc1ccc(OCCNC)cc1)c1cccc(Cl)c1 (stereo not drawn) [Example 29, N-[2-(4-(2-Methylaminoethoxy)phenyl)-1-methylethyl]-2-^n propoxy-2-(3-chlorophenyl)ethanamine dihydrochloride]
inhibition in vivo at 25 µmol/kg (blood glucose; 25 μmol/Kg oral, 2 h after glucose 1 g/Kg s.c., vs control, read-out: % Reduction in area under Blood Glucose Curve): 43%
Topical anti-inflammatory ACTIVITY (rat ear): Active
DOSE RATIO (EC50 of collagen with compound / control EC50) ([1]; final concentration in whole blood 100 μM): 10.8
response vs control in vivo at 23.9 mg/kg [2, 3]: 144%
response vs control in vivo at 23.9 mg/kg [2, 4]: 118%

DOSE RATIO (EC50 of collagen with compound / control EC50) [1, 5]: 3.7 ± 1.1
Structure (SMILES): OCCN(CCO)c1nc(N2CCCCC2)c2nc(N(CCO)CCO)nc(N3CCCCC3)c2n1 [Dipyridamole, reference compound]

Structure (SMILES): COC(=O)COc1ccc(CC(C)NCC(OC)c2cccc(Cl)c2)cc1.Cl (stereo not drawn) [Example 1, N-[2-(4-Carbomethoxymethoxyphenyl)-1-methylethyl]-2-methoxy-2-(3-chlorophenyl)ethanamine hydrochloride]
EC50 (left atrium): 30 µM
Emax (left atrium): 30%
inhibition in vivo at 0.25 µmol/kg (blood glucose; [6]): 47%
Emax (right atrium): 0%
Topical anti-inflammatory ACTIVITY (rat ear): Active
DOSE RATIO (EC50 of collagen with compound / control EC50) ([1]; final concentration in whole blood 300 μM): 6.9
response vs control in vivo at 21.4 mg/kg [2, 7]: 151%
response vs control in vivo at 21.4 mg/kg [2, 8]: 138%

Structure (SMILES): CNCCOc1ccc(CC(C)NCC(OC)c2cccc(Cl)c2)cc1 (stereo not drawn) [Example 6, N-[2-(4-(2-Methylaminoethoxy)phenyl)-1-methylethyl]-2-methoxy-2-(3-chlorophenyl)ethanamine dihydrochloride]
Emax (left atrium): 0%
inhibition in vivo at 12.5 µmol/kg (blood glucose; [6]): 55%
Emax (right atrium): 0%
response vs control in vivo at 22.5 mg/kg [2, 7]: 154%
response vs control in vivo at 22.5 mg/kg [2, 8]: 126%

Structure (SMILES): CNC(=O)COc1ccc(CC(C)NCC(OC)c2cccc(C(F)(F)F)c2)cc1 (stereo not drawn) [Example 7, N-[2-(4-Methylaminocarbonylmethoxyphenyl)-1-methylethyl]-2-methoxy-2-(3-trifluoromethylphenyl)ethanamine hydrochloride]
EC50 (left atrium): 36 µM
Emax (left atrium): 23%
inhibition in vivo at 2.5 µmol/kg (blood glucose; [6]): 32%
EC50 (right atrium; concentration producing 50% of its own maximum response): 1.5 µM
Emax (right atrium): 6%
response vs control in vivo at 23 mg/kg [2, 7]: 143%
response vs control in vivo at 23 mg/kg [2, 8]: 123%

Structure (SMILES): CC(=O)Oc1ccccc1C(=O)O [Aspirin, reference compound]
DOSE RATIO (EC50 of collagen with compound / control EC50) [1, 5]: 2.0 ± 0.1

Structure (SMILES): CNC(=O)COc1ccc(CC(C)NCC(OC(C)C)c2cccc(Cl)c2)cc1 (stereo not drawn) [Example 28, N-[2-(4-Methylaminocarbonylmethoxyphenyl)-1-methylethyl]-2-isopropoxy-2-(3-chlorophenyl)ethanamine dihydrochloride hemihydrate]
inhibition in vivo at 2.5 µmol/kg (blood glucose; [9]): 55%
response vs control in vivo at 25.1 mg/kg [2, 10]: 132%
response vs control in vivo at 25.1 mg/kg ([2]; 25.1 mg/kg po, 0-21 h, read-out: Mean Energy Expenditure (0-21 h)): 113%

Structure (SMILES): COC(=O)COc1ccc(CC(C)NCC(OC)c2cccc(C(F)(F)F)c2)cc1 (stereo not drawn) [Example 2, N-[2-(4-Carbomethoxymethoxyphenyl)-1-methylethyl]-2-methoxy-2-(3-trifluoromethylphenyl)ethanamine hydrochloride]
inhibition in vivo at 12.5 µmol/kg (blood glucose; [6]): 47%
response vs control in vivo at 23.1 mg/kg [2, 7]: 124%
response vs control in vivo at 23.1 mg/kg [2, 8]: 113%

Structure (SMILES): CCCCCCOC(CNC(C)Cc1ccc(OCC(=O)OC)cc1)c1cccc(Cl)c1 (stereo not drawn) [Example 44, N-[2-(4-Carbomethoxymethoxyphenyl)-1-methylethyl]-2-^n hexyloxy-2-(3-chlorophenyl)ethanamine hydrochloride]
inhibition in vivo at 7.5 µmol/kg (blood glucose; 7.5 μmol/Kg oral, 2 h after glucose 1 g/Kg s.c., vs control): 34%
response vs control in vivo at 24.9 mg/kg [2, 7]: 145%
response vs control in vivo at 24.9 mg/kg ([2]; 24.9 mg/kg po, 0-21 h, read-out: Mean Energy Expenditure (0-21 h)): 101%

Structure (SMILES): COC(=O)COc1ccc(CC(C)NCC(OCc2ccccc2)c2cccc(Cl)c2)cc1 (stereo not drawn) [Example 50, N-[2-(4-Carbomethoxymethoxyphenyl)-1-methylethyl]-2-benzyloxy-2-(3-chlorophenyl)ethanamine hydrochloride]
inhibition in vivo at 2.5 µmol/kg (blood glucose; [6]): 41%
response vs control in vivo at 24.6 mg/kg [2, 7]: 142%
response vs control in vivo at 24.6 mg/kg [2, 8]: 116%

Structure (SMILES): CNC(=O)COc1ccc(CC(C)NCC(OC)c2cccc(Br)c2)cc1 (stereo not drawn) [Example 15, N-[2-(4-Methylaminocarbonylmethoxyphenyl)-1-methylethyl]-2-methoxy-2-(3-bromophenyl)ethanamine hydrochloride]
inhibition in vivo at 0.5 µmol/kg (blood glucose; [6]): 41%
response vs control in vivo at 23.6 mg/kg [2, 7]: 137%
response vs control in vivo at 23.6 mg/kg [2, 8]: 125%

Structure (SMILES): CNCc1ccc(CC(C)NCC(OC)c2cccc(Cl)c2)cc1 (stereo not drawn) [Example 35, N-[2-(4-N'-Methylaminomethylphenyl)-1-methylethyl]-2-methoxy-2-(3-chlorophenyl)ethanamine dihydrochloride]
inhibition in vivo at 12.5 µmol/kg (blood glucose; 12.5 μmol/Kg oral, 2 h after glucose 1 g/Kg s.c., vs control, read-out: % Reduction in area under Blood Glucose Curve): 10%
response vs control in vivo at 21 mg/kg [2, 3]: 124%
response vs control in vivo at 21 mg/kg [2, 4]: 123%

Structure (SMILES): COC(=O)COc1ccc(CC(C)NCC(OC)c2ccccc2)cc1 (stereo not drawn) [Example 10, N-[2-(4-Carbomethoxymethoxyphenyl)-1-methylethyl]-2-methoxy-2-phenylethanamine hydrochloride monohydrate]
inhibition in vivo at 1 µmol/kg (blood glucose; [6]): 24%
response vs control in vivo at 20.6 mg/kg [2, 7]: 135%
response vs control in vivo at 20.6 mg/kg [2, 8]: 114%

Structure (SMILES): COC(CNC(C)Cc1ccc(CO)cc1)c1cccc(Cl)c1 (stereo not drawn) [Example 31, N-[2-(4-Hydroxymethylphenyl)-1-methylethyl]-2-methoxy-2-(3-chlorophenyl)ethanamine hydrochloride]
inhibition in vivo at 12.5 µmol/kg (blood glucose; [6]): 29%
response vs control in vivo at 18.5 mg/kg [2, 7]: 103%
response vs control in vivo at 18.5 mg/kg [2, 8]: 126%

Structure (SMILES): CNCCOc1ccc(CC(C)NCC(OC)c2cccc(C(F)(F)F)c2)cc1 (stereo not drawn) [Example 46, N-[2-(4-(2-Methylaminoethoxy)phenyl)-1-methylethyl]-2-methoxy-2-(3-trifluoromethylphenyl)ethanamine dihydrochloride]
inhibition in vivo at 5 µmol/kg (blood glucose; [6]): 20%
response vs control in vivo at 24.2 mg/kg [2, 7]: 122%
response vs control in vivo at 24.2 mg/kg [2, 8]: 104%

Structure (SMILES): CCCOC(CNC(C)Cc1ccc(OCC(=O)NC)cc1)c1cccc(Cl)c1 (stereo not drawn) [Example 27, N-[2-(4-Methylaminocarbonylmethoxyphenyl)-1-methylethyl]-2-^n propoxy-2-(3-chlorophenyl)ethanamine dihydrochloride hemihydrate]
inhibition in vivo at 2.5 µmol/kg (blood glucose; [9]): 52%
response vs control in vivo at 25.1 mg/kg [2, 8]: 115%
response vs control in vivo at 25.1 mg/kg [2, 10]: 143%
